Source: ChEMBL document CHEMBL1201862, “PubChem BioAssay data set” (2004)
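Assay format: 96-well plates, 48-hour exposure. The concentration for 50% growth inhibition is given as GI50.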 Calls of active or inactive are those of the source. Cut-off read from the data, not from the text of the source: active = GI50 up to about 1.1 µM and inactive = higher.

Tests used:
Assay in all cases: growth of human tumour cells (NCI), 48 h
KM12 = system: KM12
HCT-116 = system: HCT-116
OVCAR-5 = system: OVCAR-5
CCRF-CEM = system: CCRF-CEM
OVCAR-8 = system: OVCAR-8
COLO 205 = system: COLO 205
ACHN = system: ACHN
SNB-19 = system: SNB-19
SW-620 = system: SW-620
UACC-62 = system: UACC-62
TK-10 = system: TK-10
SK-OV-3 = system: SK-OV-3
SK-MEL-28 = system: SK-MEL-28
SF-539 = system: SF-539
HOP-92 = system: HOP-92
UACC-257 = system: UACC-257
NCI/ADR-RES = system: NCI/ADR-RES
T47D = system: T47D
DU-145 = system: DU-145

Measured: GI50

CCC(=O)NCC1(c2c[nH]c3ccccc23)SCCS1
inactive: KM12 > 100 µM | HCT-116 48.1 µM | OVCAR-5 > 100 µM | CCRF-CEM > 100 µM | OVCAR-8 > 100 µM | COLO 205 > 100 µM | ACHN 82 µM | SNB-19 > 100 µM | SW-620 > 100 µM | UACC-62 63.4 µM | TK-10 > 100 µM | SK-OV-3 > 100 µM | SK-MEL-28 > 100 µM | SF-539 > 100 µM | HOP-92 > 100 µM | UACC-257 > 100 µM

CC(=O)C(C(C)=O)=C1CCCC(O)O1 (centres undefined)
inactive: KM12 > 100 µM | HCT-116 > 100 µM | OVCAR-5 > 100 µM | CCRF-CEM 48.5 µM | OVCAR-8 > 100 µM | NCI/ADR-RES > 100 µM | COLO 205 > 100 µM | ACHN > 100 µM | SNB-19 > 100 µM | SW-620 > 100 µM | UACC-62 > 100 µM | T47D > 100 µM | TK-10 > 100 µM | SK-OV-3 > 100 µM | DU-145 > 100 µM | SK-MEL-28 > 100 µM | SF-539 > 100 µM | UACC-257 > 100 µM

COC(=O)/C(=N\Nc1nc(S)nn1N)C(C#N)c1ccc(Cl)cc1 (centres undefined)
inactive: KM12 > 100 µM | HCT-116 > 100 µM | OVCAR-5 > 100 µM | OVCAR-8 > 100 µM | COLO 205 > 100 µM | ACHN > 100 µM | SNB-19 > 100 µM | SW-620 > 100 µM | UACC-62 > 100 µM | TK-10 > 100 µM | SK-OV-3 > 100 µM | SK-MEL-28 > 100 µM | SF-539 > 100 µM | HOP-92 > 100 µM | UACC-257 > 100 µM

C[C@H]1CC(=O)C[C@@H]2CC[C@@H]3[C@H](CC[C@]4(C)C(OC(=O)c5cccc6c(=O)c7ccccc7[nH]c56)CC[C@@H]34)[C@]21C (some centres undefined)
inactive: KM12 30.4 µM | HCT-116 33.3 µM | OVCAR-5 > 100 µM | CCRF-CEM 23.8 µM | OVCAR-8 23.8 µM | NCI/ADR-RES 20.4 µM | COLO 205 22 µM | ACHN 34.4 µM | SNB-19 > 100 µM | SW-620 55.5 µM | UACC-62 21.6 µM | T47D 32.7 µM | TK-10 64.7 µM | SK-OV-3 16.3 µM | DU-145 54.3 µM | SK-MEL-28 38.2 µM | SF-539 > 100 µM | HOP-92 16 µM | UACC-257 32.6 µM

C[C@]12CC/C(=N\O)C=C1CC[C@@H]1C2CC[C@@]2(C)C1CC[C@@H]2OC1CCCCO1 (some centres undefined)
inactive: KM12 16.7 µM | HCT-116 20.1 µM | OVCAR-5 15.5 µM | OVCAR-8 > 100 µM | COLO 205 17.4 µM | ACHN 16.3 µM | SNB-19 18.3 µM | SW-620 18.1 µM | UACC-62 > 10 µM | TK-10 22.8 µM | SK-OV-3 21.9 µM | SK-MEL-28 22.7 µM | SF-539 > 10 µM | HOP-92 17.7 µM | UACC-257 20.4 µM

COCN1COCN(C)C1=O
inactive: KM12 > 100 µM | HCT-116 > 100 µM | OVCAR-5 > 100 µM | CCRF-CEM > 100 µM | OVCAR-8 > 100 µM | COLO 205 > 100 µM | ACHN > 100 µM | SNB-19 > 100 µM | SW-620 > 100 µM | UACC-62 > 100 µM | TK-10 > 100 µM | SK-OV-3 > 100 µM | SK-MEL-28 > 100 µM | SF-539 > 100 µM | HOP-92 > 100 µM | UACC-257 > 100 µM

CSc1c([S+](C)[O-])[nH]c2cc(Br)cc(Br)c12 (centres undefined)
inactive: KM12 24.6 µM | HCT-116 17.6 µM | CCRF-CEM 22.2 µM | OVCAR-8 22 µM | COLO 205 18 µM | ACHN 24.5 µM | SW-620 32.8 µM | UACC-62 17.9 µM | TK-10 27.8 µM | SK-OV-3 27.9 µM | SK-MEL-28 20.7 µM | SF-539 22.4 µM | HOP-92 10.9 µM | UACC-257 33.3 µM

CCOC(=O)Nc1ccc(S(=O)(=O)OC)cc1.CCOC(=O)Nc1ccc(S(=O)(=O)OC)cc1.Nc1ncnc2c1ncn2C1OC(CO)C(O)C1O (centres undefined)
inactive: KM12 99.8 µM | HCT-116 17.5 µM | OVCAR-5 > 100 µM | CCRF-CEM 20.6 µM | OVCAR-8 > 100 µM | COLO 205 49 µM | ACHN > 100 µM | SNB-19 > 100 µM | SW-620 18.2 µM | UACC-62 > 100 µM | TK-10 > 100 µM | SK-OV-3 > 100 µM | SK-MEL-28 > 100 µM | SF-539 > 100 µM | HOP-92 > 100 µM | UACC-257 39.6 µM
